Assay results as given in PMC9246256, “Structure-based optimization of type III indoleamine 2,3-dioxygenase 1 (IDO1) inhibitors” (Journal of Enzyme Inhibition and Medicinal Chemistry, 2022).
Read-outs that look alike come from different tables or passages of the source.

Columns and labels:
HEK 293 T cells [1] = assay: Cell viability / cellular toxicity (DAPI staining, cytometry); assay type: cell-based, human; conditions: compound 200 µM, 7 h
Procedure: (§1) We tested the cellular hIDO1 inhibitory activity and toxicity of 30 active compounds at a single concentration (Figure 6 and Table 8). As some of the aniline derivatives reacted with Ehrlich’s reagent (p-dimethylaminobenzaldehyde, p-DMAB) used to quantify kynurenine, the kynurenine content of these samples was determined by HPLC. To be able to detect also weak inhibition, compounds were tested at the high concentration of 200 µM (Figure 6A and B, filled bars), except for less soluble compounds (52, 148, 149 and 153), which were tested at a concentration of 50 µM (Figure 6A and B, empty bars).
Following DMSO (negative control) or inhibitor treatments, apoptotic cells were detected by 4′,6-diamidino-2-phenylindole (DAPI) staining. Briefly, after 7 h of incubation, cells were washed with PBS, resuspended in PBS with 1 µg/mL DAPI and immediately analysed using a BD LSR II cytometer. A 405 nm laser with 450/50 nm bandpass filter was used to collect data.

[2] = molecular target: T1, purified recombinant IDO1 (Homo sapiens, UniProt P14902); assay: Enzymatic IDO1 inhibition assay (ascorbate/methylene blue reduction system, HPLC detection of kynurenine); assay type: biochemical; conditions: for IC50: enzymatic; for LE [kcal/mol/HA]: ligand efficiency, LE = -RT log(IC50)/number of heavy atoms, from enzymatic IC50
T1 construct: Full-length human IDO1 gene was cloned into the pET-28a vector; inferred from pET-28a vector and HisTrap purification; made in house; host or cells: E. coli Rosetta (DE3)
T1 sequence (P14902 whole entry): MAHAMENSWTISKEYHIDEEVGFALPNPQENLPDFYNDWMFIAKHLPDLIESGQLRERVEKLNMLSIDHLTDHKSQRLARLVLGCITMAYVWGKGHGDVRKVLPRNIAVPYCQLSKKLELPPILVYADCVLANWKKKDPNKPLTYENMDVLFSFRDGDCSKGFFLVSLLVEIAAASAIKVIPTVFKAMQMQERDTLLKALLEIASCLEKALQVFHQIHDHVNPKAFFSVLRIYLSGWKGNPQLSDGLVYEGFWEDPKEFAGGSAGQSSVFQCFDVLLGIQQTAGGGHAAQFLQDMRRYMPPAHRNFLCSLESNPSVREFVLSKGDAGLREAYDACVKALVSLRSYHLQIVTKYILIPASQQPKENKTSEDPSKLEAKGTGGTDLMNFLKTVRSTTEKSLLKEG
Procedure: Enzymatic IC50 values were measured with the ascorbate/methylene blue reduction system[85] in presence of a non-ionic detergent to reduce compound aggregation as described before[28]. Kynurenine and L-Trp concentrations were determined by HPLC through UV detection.
Full-length human IDO1 gene was cloned into the pET-28a vector and expressed in E. coli Rosetta (DE3) cells. […] The culture was harvested and frozen at −80 °C until further use. The frozen cells were lysed by sonication in 20 mM Tris pH 7, 400 mM NaCl, 1 mM MgCl2, 20 mM imidazole, 1 mM DTT, 0.5 mg/mL Lysozyme and Protease inhibitor. After centrifugation, the supernatant was loaded into a HisTrap HP column pre-equilibrated with buffer containing 20 mM Tris pH 7, 500 mM NaCl and 20 mM imidazole, and eluted with the same buffer containing 500 mM imidazole. Fractions containing IDO1 were pooled, concentrated, and injected on a size exclusion chromatography column (HiLoad Superdex S75 16/60) to increase purity. hIDO1 fractions were concentrated to 20 mg/mL in 20 mM Tris pH 7 and 150 mM NaCl.
The enzymatic inhibition assays were performed as described by Takikawa et al.[130] with some modifications. Briefly, the reaction mixture (100 µL) contained potassium phosphate buffer (100 mM, pH 6.5) ascorbic acid (20 mM), catalase (400 units/mL), methylene blue (10 µM), purified recombinant IDO1 (2.5 ng/µL), L-Trp (100 µM), Triton X-100 (0.01%) and DMSO (5 µL). The inhibitors were serially diluted 3-fold for at least 8 different concentrations. After incubation at room temperature for 20 min, the reaction was stopped in its linear phase by addition of trichloroacetic acid solution (40 mL, 30% w/v), and the samples were incubated at 50 °C for 30 min. After centrifugation, 80 µl of supernatant from each well were used for HPLC analysis. The mobile phase for HPLC analysis was composed of 50% (v/v) of methanol and 50% of sodium citrate buffer (40 mM, pH 2.4) containing 400 µM sodium dodecyl sulphate. […] All assays were carried out in duplicates. The activity (Act) of each compound was calculated as Act = RT log(IC50) in analogy to the relation between the binding free energy and the Ki value. The ligand efficiency (LE) was calculated as LE = −Act/NHA, where NHA is the number of non-hydrogen atoms (heavy atoms) in the compound.

hIDO1 [3] = molecular target: T2, hIDO1 (Homo sapiens, UniProt P14902); assay: Cellular hIDO1 inhibition (kynurenine production) in transiently transfected HEK 293 T cells; assay type: cell-based; conditions: HEK 293 T cells transfected with hIDO1; read-out: Cell. IC50 [ μ M] (SD)
T2 construct: The full ORF of hIDO1 was cloned into the mammalian expression vector pcDNA6/myc-His; myc-His (vector-encoded); host or cells: HEK 293 T
T2 sequence (P14902 whole entry): as above

hIDO1 [4] = molecular target: T2, hIDO1; assay: as above; assay type: cell-based
Procedure: as §1
The cDNA encoding hIDO1 (NCBI, NM 0021464.3) was purchased from Origene as pCMV6-Entry vector (RC206592). The full ORF of hIDO1 was cloned into the mammalian expression vector pcDNA6/myc-His from Invitrogen. Human embryonic kidney 293 T (HEK 293 T) cells were transiently transfected with the plasmid construct encoding hIDO1. A 75 cm^2 flask containing HEK 293 T cells at a confluency of 70% was transfected with jetPEI DNA transfection reagent (Polyplus-transfection), according to manufacturer’s protocol. A total of 20 µg of pcDNA-IDO1 along with 5 µg of pcDNA-GFP plasmid were used for the transfection; GFP was used to evaluate transfection efficiency prior to the cellular assays. 16–18 h post-transfection the 293 T cells were detached with trypsin, centrifuged, and re-suspended in 25 mL of DMEM medium without phenol red, supplemented with penicillin and streptomycin, 10% foetal bovine serum and 1 mM pyruvate (Gibco). Subsequently, 100 µL of cells were distributed to each well of two 96-well round-bottom plates that had been pre-loaded with 100 µL DMEM and the small organic test molecule in DMSO (for a final DMSO concentration of 2%). DMEM medium contains 78 µM L-Trp and was supplemented with 500 µM of L-Trp. Cells transfected with hIDO1 were incubated for 7 h at 37 °C in a CO2 incubator. The reaction was stopped in its linear phase by adding trichloroacetic acid (TCA) to the medium at a final concentration of 4%. Plates were centrifuged for 15 min at 4,000 rpm. 100 µL of supernatant was added to 100 µL of 2% (w/v) DMAB in glacial acetic acid. After 10 min the absorbance was measured at a wavelength of 480 nm to detect kynurenine formation. Alternatively, kynurenine content was determined by HPLC as done for the enzymatic assay.

TDO = system: TDO; design: method as in PMID 22616902; conditions: undetectable activity; cited from earlier work
hIDO1 [5] = molecular target: T2, hIDO1; conditions: previously determined, 200 µM, cited from earlier work
HEK 293 T cells [6] = conditions: previously determined, 200 µM, cited from earlier work
murine IDO2 = system: murine IDO2; design: method as in PMID 27469130; conditions: murine IDO2, cellular; cited from earlier work
IDO1 = conditions: values of Panda and co-workers, not reproduced here; read-out: published IC50 values; cited from earlier work
[7] = L-Trp 100 µM, 0.01% Triton X-100, 5% DMSO, 20 min at room temperature, pH 6.5, duplicates, read-out: IC50 [ μ M] (SD)
[8] = ref 1 of Supporting Information (Röhrig et al. 2021)

IC50 [2, 7] [nM]	LE [kcal/mol/HA] [2] [kcal/mol/HA]	IC50 (hIDO1 [3]) [nM]	inhibition at 200 µM (hIDO1 [4]) [%]	SMILES	Tox. [%] (HEK 293 T cells [1])	also measured
810	0.64	1200	100	Nc1c(F)cccc1-c1nc[nH]n1 [Compound 140, 2-Fluoro-6-(1H-1,2,4-triazol-3-yl)aniline]	17 (3) %	–
34	0.73	34	100	Nc1cc(F)c(Br)cc1-c1nc[nH]n1 [Compound 144, 4-Bromo-5-fluoro-2-(1H-1,2,4-triazol-3-yl)aniline]	17 (2) %	IC50 ([2]; read-out: enzymatic IC50): 34 nM; melting point: 243 to 246 °C
150	0.72	250	86	Nc1ccc(F)cc1-c1nc[nH]n1 [Compound 143, 4-Fluoro-2-(1H-1,2,4-triazol-3-yl)aniline]	18 (0.5) %	–

The next lines start with the compound.

SMILES	IC50 [2, 7] [nM]	LE [kcal/mol/HA] [2] [kcal/mol/HA]	IC50 (hIDO1 [3]) [nM]	inhibition at 200 µM (hIDO1 [4]) [%]	Tox. [%] (HEK 293 T cells [1])	also measured
Oc1ccc(Cl)cc1-c1cnn[nH]1 [Compound 9]	–	–	–	–	–	activities on TDO (TDO): > 100 µM; Inh. [%] (hIDO1 [5]; [8]): 100%; Tox. [%] (HEK 293 T cells [6]; [8]): 4%
Clc1cccc(-c2cnn[nH]2)c1/C=C/C1CCCCC1 [Compound 42]	260000	0.24	–	–	–	IC50 (murine IDO2): 110000 nM; Inh. [%] (hIDO1 [5]; ref 3 of Supporting Information (Röhrig et al. 2016)): 56%; Tox. [%] (HEK 293 T cells [6]; ref 3 of Supporting Information (= main text ref 62)): 5%
Clc1cccc(-c2nn[nH]c2-c2cccc(Cl)c2)c1 [Compound 64, 4,5-Bis(3-chlorophenyl)-1,2,3-triazole, reference compound]	> 50000	–	–	–	–	IC50 (IDO1): 2510 nM
NC(=O)c1[nH]nnc1-c1ccc(Cl)cc1 [Compound 66, 4–(4-Chlorophenyl)-1H-1,2,3-triazole-5-carboxamide, reference compound]	800000	0.28	–	–	–	IC50 (IDO1): 620 nM
